Data from patent US9763942B2, “Serine/threonine kinase inhibitors” (Array BioPharma Inc., priority 2013, dated 2017).

Each compound was assayed against T1, human ERK-2 (Mitogen Activated Kinase 1) (Homo sapiens, UniProt P28482) (assay: ERK-2 Enzymatic Assay). Settings: ERK-2 enzymatic assay; read-out: IC50.
T1 construct: n-terminal 6-His fusion protein in E. coli and corresponding to aa 8-360; 6-His (N); made in house; host or cells: E. coli
Format: biochemical
Description: Table 1 contains representative data for Examples disclosed herein.

T1 sequence (P28482 8-360): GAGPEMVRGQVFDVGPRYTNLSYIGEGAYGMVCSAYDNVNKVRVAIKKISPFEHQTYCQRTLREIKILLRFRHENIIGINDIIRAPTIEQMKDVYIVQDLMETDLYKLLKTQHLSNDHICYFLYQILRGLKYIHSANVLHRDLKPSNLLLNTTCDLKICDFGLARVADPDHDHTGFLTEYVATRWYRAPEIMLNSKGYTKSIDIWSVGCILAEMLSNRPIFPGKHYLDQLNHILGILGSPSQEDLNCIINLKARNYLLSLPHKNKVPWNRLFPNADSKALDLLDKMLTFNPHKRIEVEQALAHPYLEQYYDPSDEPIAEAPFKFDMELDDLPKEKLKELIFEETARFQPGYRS

SMILES | IC50 [nM]
CN1C[C@@H](n2nnc3cc(-c4ccnc(Nc5ccnn5C)n4)ccc32)[C@H](c2ccc(F)cc2F)C1 [Example 74, 4-(1-((3S,4R)-4-(2,4-difluorophenyl)-1-methylpyrrolidin-3-yl)-1H-benzo[d][1,2,3]triazol-5-yl)-N-(1-methyl-1H-pyrazol-5-yl)pyrimidin-2-amine] | < 100
COc1ccc(Cn2nnc3cc(-c4ccnc(Nc5nnnn5C)n4)ccc32)cc1F [Example 24, 4-(1-(3-fluoro-4-methoxybenzyl)-1H-benzo[d][1,2,3]triazol-5-yl)-N-(1-methyl-1H-tetrazol-5-yl)pyrimidin-2-amine] | < 100
Cn1nccc1Nc1nccc(-c2ccc3c(c2)nnn3[C@H]2CNCC(F)(F)C2)n1 [Example 79, (R)-4-(1-(5,5-difluoropiperidin-3-yl)-1H-benzo[d][1,2,3]triazol-5-yl)-N-(1-methyl-1H-pyrazol-5-yl)pyrimidin-2-amine] | < 100
Cn1nccc1Nc1nccc(-c2ccc3c(c2)nnn3CC2CC(F)(F)C2)n1 [Example 34, 4-(1-((3,3-difluorocyclobutyl)methyl)-1H-benzo[d][1,2,3]triazol-5-yl)-N-(1-methyl-1H-pyrazol-5-yl)pyrimidin-2-amine] | < 100
Cn1nccc1Nc1nccc(-c2ccc3c(c2)nnn3[C@H](CO)c2ccc(Cl)c(F)c2)n1 [Example 93, (S)-2-(4-chloro-3-fluorophenyl)-2-(5-(2-((1-methyl-1H--pyrazol-5-yl)amino)pyrimidin-4-yl)-1H-benzo[d][1,2,3]triazol-1-yl)ethanol] | < 100
COc1ccc(Cn2nnc3cc(-c4ccnc(Nc5cnn(C)c5)n4)ccc32)cc1F [Example 2, 4-(1-(3-fluoro-4-methoxybenzyl)-1H-benzo[d][1,2,3]triazol-5-yl)-N-(1-methyl-1H-pyrazol-4-yl)pyrimidin-2-amine] | < 100
CC(C)Cn1nnc2cc(-c3ccnc(Nc4ccnn4C)n3)cnc21 [Example 114, 4-(3-isobutyl-3H-[1,2,3]triazolo[4,5-b]pyridin-6-yl)-N-(1-methyl-1H-pyrazol-5-yl)pyrimidin-2-amine] | < 100
COc1ccc(Cn2nnc3cc(-c4ccnc(NCC(C)(C)O)n4)ccc32)cc1F [Example 18, 1-((4-(1-(3-fluoro-4-methoxybenzyl)-1H-benzo[d][1,2,3]triazol-5-yl)pyrimidin-2-yl)amino)-2-methylpropan-2-ol] | < 100
COCCN1C[C@@H](n2nnc3cc(-c4ccnc(Nc5ccnn5C)n4)ccc32)[C@H](c2ccc(F)cc2)C1 [Example 87, 4-(1-((3S,4R)-4-(4-fluorophenyl)-1-(2-methoxyethyl)pyrrolidin-3-yl)-1H-benzo[d][1,2,3]triazol-5-yl)-N-(1-methyl-1H-pyrazol-5-yl)pyrimidin-2-amine] | < 100
Cn1nccc1Nc1nccc(-c2ccc3c(c2)nnn3C2CNCCC2c2cccc(F)c2)n1 (stereo not drawn) [Example 89, 4-(1-(4-(3-fluorophenyl)piperidin-3-yl)-1H-benzoyl[d][1,2,3]triazol-5-yl)-N-(1-methyl-1H-pyrazol-5-yl)pyrimidin-2-amine] | < 100
Cn1nccc1Nc1nccc(-c2ccc3c(c2)nnn3Cc2ccc(F)c(Cl)c2)n1 [Example 125, 4-(1-(3-chloro-4-fluorobenzyl)-1H-benzo[d][1,2,3]triazol-5-yl)-N-(1-methyl-1H-pyrazol-5-yl)pyrimidin-2-amine] | < 100
CN1C[C@@H](n2nnc3cc(-c4ccnc(Nc5ccnn5C)n4)ccc32)[C@H](c2ccc(F)c(F)c2)C1 [Example 75, 4-(1-((3S,4R)-4-(3,4-difluorophenyl)-1-methylpyrrolidin-3-yl)-1H-benzo[d][1,2,3]triazol-5-yl)-N-(1-methyl-1H-pyrazol-5-yl)pyrimidin-2-amine] | < 100
Cn1nccc1Nc1nccc(-c2ccc3c(c2)nnn3CC2(C)CCC2)n1 [Example 48, N-(1-methyl-1H-pyrazol-5-yl)-4-(1-((1-methylcyclobutyl)methyl)-1H-benzo[d][1,2,3]triazol-5-yl)pyrimidin-2-amine] | < 100
COc1ccc(Cn2nnc3cc(-c4ccnc(Nc5cc(C6CC6)nn5C)n4)ccc32)cc1F [Example 25, N-(3-cyclopropyl-1-methyl-1H-pyrazol-5-yl)-4-(1-(3-fluoro-4-methoxybenzyl)-1H-benzoyl[d][1,2,3]triazol-5-yl)pyrimidin-2-amine] | < 100
Cn1nccc1Nc1nccc(-c2ccc3c(c2)nnn3Cc2ncc(F)cc2F)n1 [Example 69, 4-(1-((3,5-difluoropyridin-2-yl)methyl)-1H-benzo[d][1,2,3]triazol-5-yl)-N-(1-methyl-1H-pyrazol-5-yl)pyrimidin-2-amine] | < 100
Cn1nccc1Nc1nccc(-c2ccc3c(c2)nnn3Cc2cccc(Cl)c2)n1 [Example 117, 4-(1-(3-chlorobenzyl)-1H-benzo[d][1,2,3]triazol-5-yl)-N(1-methyl-1H-pyrazol-5-yl)pyrimidin-2-amine] | < 100
Cn1nccc1Nc1nccc(-c2ccc3c(c2)nnn3Cc2ccc(OC(F)F)cc2)n1 [Example 51, 4-(1-(4-(difluoromethoxy)benzyl)-1H-benzo[d][1,2,3]triazol-5-yl)-N-(1-methyl-1H-pyrazol-5-yl)pyrimidin-2-amine] | < 100
CN1C[C@@H](n2nnc3cc(-c4ccnc(Nc5ccnn5C)n4)ccc32)[C@H](c2cc(F)cc(F)c2)C1 [Example 76, 4-(1-((3S,4R)-4-(3,5-difluorophenyl)-1-methylpyrrolidin-3-yl)-1H-benzo[d][1,2,3]triazol-5-yl)-N-(1-methyl-1H-pyrazol-5-yl)pyrimidin-2-amine] | < 100
Cn1nccc1Nc1nccc(-c2cnc3c(c2)nnn3Cc2cccc(Cl)c2)n1 [Example 124, 4-(3-(3-chlorobenzyl)-3H-[1,2,3]triazolo[4,5-b]pyridin-6-yl)-N-(1-methyl-1H-pyrazol-5-yl)pyrimidin-2-amine] | < 100
Cn1nccc1Nc1nccc(-c2ccc3c(c2)nnn3CC2CCCC2)n1 [Example 29, 4-(1-(cyclopentylmethyl)-1H-benzo[d][1,2,3]triazol-5-yl)-N-(1-methyl-1H-pyrazol-5-yl)pyrimidin-2-amine] | < 100
Cc1cnn(CCn2nnc3cc(-c4ccnc(Nc5ccnn5C)n4)ccc32)c1 [Example 103, 4-(1-(2-(4-methyl-1H-pyrazol-1-yl)ethyl)-1H-benzo[d][1,2,3]triazol-5-yl)-N-(1-methyl-1H-pyrazol-5-yl)pyrimidin-2-amine] | < 100
Cn1nccc1Nc1cc(-c2cnc3c(c2)nnn3Cc2cccc(Cl)c2)ccn1 [Example 115, 4-(3-(3-chlorobenzyl)-3H-[1,2,3]triazolo[4,5-b]pyridin-6-yl)-N-(1-methyl-1H-pyrazol-5-yl)pyridin-2-amine] | < 100
COCCN1C[C@H](c2ccc(F)cc2)[C@@H](n2nnc3cc(-c4ccnc(Nc5ccnn5C)n4)ccc32)C1 [Example 83, 4-(1-((3R,4S)-4-(4-fluorophenyl)-1-(2-methoxyethyl)pyrrolidin-3-yl)-1H-benzo[d][1,2,3]triazol-5-yl)-N-(1-methyl-1H-pyrazol-5-yl)pyrimidin-2-amine] | < 100
Cc1cc(-n2nnc3cc(-c4ccnc(Nc5ccnn5C)n4)ccc32)n(-c2ccccn2)n1 [Example 82, 4-(1-(3-methyl-1-(pyridin-2-yl)-1H-pyrazol-5-yl)-1H-benzo[d][1,2,3]triazol-5-yl)-N-(1-methyl-1H-pyrazol-5-yl)pyrimidin-2-amine] | < 100
